Test results from US20230151432A1, “KIF18A INHIBITORS FOR TREATMENT OF NEOPLASTIC DISEASES” (AMGEN INC., priority 2020, published 2023).

What was measured:
[1] = target: T1, mouse KIF18A (residues 1-467) (Mus musculus, UniProt Q91WD7); test: KIF18A MT-ATPase motor activity, ADP-Glo luminescence assay (Example 19); format: biochemical; conditions: mouse KIF18A 4 nM, 30 μM ATP; read-out: IC50, KIF18A motor activity (MT-ATPase)
T1 construct: mouse KIF18A (residues 1-467, 4 nM); made in house
Protocol: A trio of KIF18A inhibitors (Compound C9, Compound C11, and Compound C12) were synthesized and tested in vitro for KIF18A inhibitory activity. […] The values represent mean t SEM from three independent experiments. […] As in vivo studies in mice were planned, the mouse KIF18A inhibitory effects of Compound C9 and C12 were assayed.
KIF18A compounds C9, C11, C12 were 2-fold serially diluted over a 22-point concentration range in DMSO using 384-well plate (Corning). Recombinant truncated kinesin motor proteins (human KIF18A (residues 1-467, 4 nM), mouse KIF18A (residues 1-467, 4 nM)) were expressed and purified. ADP-Glo luminescence assay (Promega) was used to measure the MT-ATPase motor activity. Porcine brain MTs were procured from Cytoskeleton Inc. Compounds were pre-incubated for <30 min in reaction buffer (15 mM Tris, pH 7.5, 10 mM MgCl2, 0.01% Pluronic F-68, 2% DMSO, 1 μM paclitaxel, 30 μg/mL MTs) with motor proteins at concentrations indicated above, 30 μM ATP was added to initiate the enzymatic reaction for 15 min at room temperature (RT). ADP-Glo reagents were added according to manufactures protocol, the luminescence intensity proportional to ADP present was measured using an EnVision plate reader (Perkin Elmer). Raw luminescence signal data was normalized to POC (percentage of positive control) and then Activity (%) was computed [POC=100×(sample signal−negative control signal)+(positive control signal−negative control signal). Activity (%)=POC−100]. The positive control (enzyme+substrate) and negative control (substrate alone) had equivalent concentrations of DMSO. Curve-fitting and IC50 values were determined by 4-parameter non-linear regression equation (variable slope) using GraphPad Prism 7.05 (GraphPad Software).

[2] = test system: MDA-MB-157 TNBC cells; test: Centrosome immunofluorescence imaging and cl-PARP Western blotting (Example 6); format: cell-based, human; conditions: 0.5 μM; 24 h imaging, 48 h Western; TP53 mutant, CCNE1 amplified
Protocol: (§1) To analyze the effects of a KIF18A inhibitor on mitotic centrosome/chromosome features and apoptosis of cancer cells, centrosome features in CAL-51 and MDA-MB-157 TNBC cells were analyzed by an immunofluorescence imaging analysis. Cells were seeded into Cell Carrier Ultra 96-well Polystyrene plate (PerkinElmer) in 200 μL of complete media and grown. […] Cells were washed twice with 200 μL Wash Buffer (1×PBS/0.5% BSA, Rockland Immunochemicals). Cells are stained with 100 μL anti-CETN3 mouse antibody (1:2000, H00001070-M01, Abnova) and anti-pericentrin rabbit antibody (1:2000, ab4448-100, Abcam) in 200 μL of Wash Buffer and incubated overnight at 4° C. Cells were washed twice with 200 μL Wash Buffer. Cells were stained with 100 μL secondary antibodies [goat anti-mouse IgG-alexa-488 (1:1000, A1 1029, Invitrogen) and goat anti-rabbit IgG-alexa-647 (1:1000, A21244, Invitrogen) in Wash Buffer for 2 hours at room temperature protected for light. Cells were washed twice followed by addition of 100 μL Wash Buffer containing Hoechst 33342 DNA dye (2 μg/mL). Cells were imaged on a PerkinElmer Ultraview Vox dual spinning disc confocal microscope using a 60× oil immersion objective with laser excitation wavelengths of 405 nm (Hoechst), 488 nm (alexa-488), and 647 nm (alexa-647). Representative maximal projection images were collected for mitotic objects from each treatment well. […]

[3] = test system: CAL-51 TNBC cells; test: as above; format: cell-based, human; conditions: 0.5 μM; 24 h imaging, 48 h Western; TP53 wild-type
Protocol: as §1

T1 sequence (Q91WD7 1-467): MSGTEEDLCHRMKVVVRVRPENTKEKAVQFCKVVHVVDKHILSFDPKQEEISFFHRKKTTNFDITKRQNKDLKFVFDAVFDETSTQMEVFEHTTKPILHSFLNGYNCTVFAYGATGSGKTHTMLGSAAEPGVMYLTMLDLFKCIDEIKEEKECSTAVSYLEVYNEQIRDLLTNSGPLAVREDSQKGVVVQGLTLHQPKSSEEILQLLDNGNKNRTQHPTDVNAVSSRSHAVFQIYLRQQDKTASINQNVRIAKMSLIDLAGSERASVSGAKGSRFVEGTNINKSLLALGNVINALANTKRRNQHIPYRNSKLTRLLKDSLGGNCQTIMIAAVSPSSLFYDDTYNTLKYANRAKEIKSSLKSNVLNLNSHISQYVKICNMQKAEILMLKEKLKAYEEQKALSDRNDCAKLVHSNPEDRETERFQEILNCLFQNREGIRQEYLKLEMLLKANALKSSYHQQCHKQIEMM
T1 sequence (P02550 whole entry partner, the tested form may be a part): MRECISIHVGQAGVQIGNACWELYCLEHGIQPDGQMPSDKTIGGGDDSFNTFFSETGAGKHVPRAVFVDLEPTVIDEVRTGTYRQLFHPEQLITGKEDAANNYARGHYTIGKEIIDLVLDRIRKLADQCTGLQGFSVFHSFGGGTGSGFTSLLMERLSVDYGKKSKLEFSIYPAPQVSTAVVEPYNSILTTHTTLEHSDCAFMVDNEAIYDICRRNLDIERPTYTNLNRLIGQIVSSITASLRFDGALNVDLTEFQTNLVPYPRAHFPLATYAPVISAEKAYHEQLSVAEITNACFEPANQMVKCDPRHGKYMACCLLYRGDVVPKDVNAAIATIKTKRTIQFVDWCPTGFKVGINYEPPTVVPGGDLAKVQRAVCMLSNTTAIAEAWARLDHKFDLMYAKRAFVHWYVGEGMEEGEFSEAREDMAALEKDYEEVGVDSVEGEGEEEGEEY
T1 sequence (P02554 whole entry partner, the tested form may be a part): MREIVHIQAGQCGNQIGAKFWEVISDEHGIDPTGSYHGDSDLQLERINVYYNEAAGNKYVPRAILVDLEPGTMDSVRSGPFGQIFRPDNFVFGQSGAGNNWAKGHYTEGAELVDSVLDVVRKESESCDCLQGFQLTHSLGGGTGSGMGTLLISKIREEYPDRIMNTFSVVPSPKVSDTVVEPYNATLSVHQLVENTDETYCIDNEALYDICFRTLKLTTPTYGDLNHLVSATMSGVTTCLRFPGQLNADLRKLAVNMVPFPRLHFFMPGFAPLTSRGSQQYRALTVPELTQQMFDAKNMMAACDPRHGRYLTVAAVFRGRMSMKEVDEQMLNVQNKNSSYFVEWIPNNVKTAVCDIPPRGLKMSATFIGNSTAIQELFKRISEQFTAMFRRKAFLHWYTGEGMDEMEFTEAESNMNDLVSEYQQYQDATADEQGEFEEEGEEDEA

Question: For `CC(C)(C)NS(=O)(=O)c1cccc(NC(=O)c2ccc(S(=O)(=O)NC(C)(C)C)cc2N2CCC3(CC2)CC3)c1` [Compound C9, 4-(N-(tert-butyl)sulfamoyl)-N-(3-(N-(tert-butyl)sulfamoyl)phenyl)-2-(6-azaspiro[2.5]octan-6-yl)benzamide], which IC50 [1] is on record?
Answer: 232 nM

Question: With `CC(C)(CO)Nc1ccc(C(=O)Nc2cccc(S(=O)(=O)C3CCCC3)c2)c(N2CCC3(CC2)CC3)n1` [Compound C11, N-(3-(cyclopentylsulfonyl)phenyl)-6-((1-hydroxy-2-methylpropan-2-yl)amino)-2-(6-azaspiro[2.5]octan-6-yl)nicotinamide] as the molecule, how does the “mitotic cell centrosome features and apoptosis” value [2] read?
Answer: selectively induced alterations in mitotic cell centrosome features

Question: What about the “mitotic cell centrosome features and apoptosis” value [3] of the same molecule?
Answer: no changes in centrosome features or apoptosis
